Source: patent US12370203B2, “Pharmaceutical compositions and methods of making on demand solid dosage formulations” (Eastern Virginia Medical School, priority 2018, dated 2025)
Where a name gives a salt, the structure may show the parent alone.

Experiments:
HIV = experiment: Cervical vaginal (CV) tissue explant HIV infection (p24 production, AUC); type: cell-based
Source text: FIGS. 1A, 1B and 1C show EVG dose response plots on p24 production.

[1] = EVG concentration in CV tissues; type: in vitro ADME
Experimental: FIG. 2 is a graph showing EVG concentrations in infected vs. not infected CV tissues. Median concentrations and ranges (min and max) are shown. PA=Protein adjusted. […] Based on the data, it can be extrapolated that EVG tissue concentrations of >1000 ng/g provided 100% HIV prophylaxis. (FIG. 2).

HSV = experiment: Anti-HSV activity of tenofovir prodrugs; type: cell-based

For COc1cc2c(cc1Cc1cccc(Cl)c1F)c(=O)c(C(=O)O)cn2[C@H](CO)C(C)C [EVG, elvitegravir], the “% protection of mean AUC versus HIV control” value (“% protection” for short) (HIV; Co-exposure, virus and EVG added together, EVG 0.1 μg/ml) was 97.56%, the “% protection” value (HIV; Co-exposure, virus and EVG added together, EVG 1 μg/ml) was 100% and the “% protection” value (HIV; Post-exposure 4 h, EVG 0.1 μg/ml) was 86%. The “% protection” value (HIV; Post-exposure 4 h, EVG 1 μg/ml) was 99.56%, the “% protection” value (HIV; Post-exposure 4 h, EVG 10 μg/ml) was 100% and the “% protection” value (HIV; Post-exposure 9 h, EVG 0.1 μg/ml) was 85.85%. The “% protection” value (HIV; Post-exposure 9 h, EVG 1 μg/ml) was 100%, the “% protection” value (HIV; Post-exposure 9 h, EVG 10 μg/ml) was 100% and the “% protection” value (HIV; Post-exposure 14 h, EVG 10 μg/ml) was 100%. The “% protection” value (HIV; Post-exposure 24 h, EVG 10 μg/ml) was 100%, the “% protection” value (HIV; Pre-exposure 0 h, EVG 0.1 μg/ml) was 34.5% and the “% protection” value (HIV; Pre-exposure 0 h, EVG 1 μg/ml) was 99.97%. For the same compound, the “% protection” value (HIV; Pre-exposure 0 h, EVG 10 μg/ml) was 100%, the “% protection” value (HIV; Pre-exposure 7 h, EVG 0.1 μg/ml) was 21.53% and the “% protection” value (HIV; Pre-exposure 7 h, EVG 1 μg/ml) was 99.1%. For the same compound, the “% protection” value (HIV; Pre-exposure 7 h, EVG 10 μg/ml) was 100%, the “% protection” value (HIV; Pre-exposure 24 h, EVG 0.1 μg/ml) was 44.8% and the “% protection” value (HIV; Pre-exposure 24 h, EVG 1 μg/ml) was 99.51%. For the same compound, the “% protection” value (HIV; Pre-exposure 24 h, EVG 10 μg/ml) was 100%, the “EVG tissue concentration that provided 100% HIV prophylaxis” value ([1]; extrapolated from CV tissue data) was > 1000 ng/g and the “median EVG concentration in CV tissues” value ([1]; following 4 h of exposure to 1 μg/ml of EVG) was 1150 ng/g. The “median EVG concentration in CV tissues” value ([1]; following 4 h of exposure to 10 μg/ml of EVG) was 13,381 ng/g.

For CC(C)OC(=O)[C@H](C)N[P@](=O)(CO[C@H](C)Cn1cnc2c(N)ncnc21)Oc1ccccc1 [TAF, tenofovir alafenamide fumarate], the “activity against HSV” value (HSV) was “most potent”.

In the case of CC(C)OC(=O)OCOP(=O)(CO[C@H](C)Cn1cnc2c(N)ncnc21)OCOC(=O)OC(C)C [TDF, tenofovir disoproxil fumarate], the “activity against HSV” value (HSV) is reported as “improved activity against HSV”.

For C[C@H](Cn1cnc2c(N)ncnc21)OCP(=O)(O)O [TFV, tenofovir], the “activity against HSV” value (HSV) was “improved activity against HSV”.

In the case of Nc1nc2c(ncn2COCCO)c(=O)[nH]1 [acyclovir (ACV), acyclovir], the “activity against HSV” value (HSV) is reported as “improved activity against HSV”.
